Experimental data from US20070049564A1 (Wyeth, priority 2005, published 2007).
Read-outs that look alike come from different tables or passages of the source.

Assays:
P. aeruginosa GC 2214 = assay: MIC, broth microdilution; details: Pseudomonas aeruginosa
E. coli GC 4559 = assay: MIC, broth microdilution; details: Escherichia coli
S. pneumoniae* GC 4465 = assay: MIC, broth microdilution; details: Streptococcus pneumoniae
S. aureus GC 1131 = assay: MIC, broth microdilution; details: Staphylococcus aureus
E. coli GC 2234 = assay: MIC, broth microdilution; details: Escherichia coli
S. pyogenes GC 4563 = assay: MIC, broth microdilution; details: Streptococcus pyogenes
E. coli GC 3226 = assay: MIC, broth microdilution; details: Escherichia coli
S. pneumoniae+ GC 4465 = assay: MIC, broth microdilution; details: Streptococcus pneumoniae
E. faecalis GC 4555 = assay: MIC, broth microdilution; details: Enterococcus faecalis
Staph. aureus Smith = assay: In vivo activity (oral, iv; ED50) against Staph. aureus Smith in mice
Description: Representative examples of compounds of Formula I were tested for the oral efficacy using S. aureus Smith in mice.

S. aureus GC 6335 = assay: MIC, broth microdilution; details: Staphylococcus aureus
S. agalactiae GC 4564 = assay: MIC, broth microdilution; details: Streptococcus agalactiae
E. coli GC 2232 = assay: MIC, broth microdilution; details: Escherichia coli
E. coli GC 2272 = assay: MIC, broth microdilution; details: Escherichia coli
E. faecalis GC 2265 = assay: MIC, broth microdilution; details: Enterococcus faecalis
E. coli GC 2236 = assay: MIC, broth microdilution; details: Escherichia coli
E. coli GC 2271 = assay: MIC, broth microdilution; details: Escherichia coli
E. coli GC 2203 = assay: MIC, broth microdilution; details: Escherichia coli
S. epidermidis GC 4935 = assay: MIC, broth microdilution; details: Staphylococcus epidermidis
E. faecalis GC 2267 = assay: MIC, broth microdilution; details: Enterococcus faecalis
[1] = read-out: MINIMAL INHIBITORY CONCENTRATION MIC, pre-incubated in Human Serum
[2] = read-out: MINIMAL INHIBITORY CONCENTRATION MIC, pre-incubated in Mouse Serum
[3] = read-out: MINIMAL INHIBITORY CONCENTRATION MIC, pre-incubated in Water

CN(C)c1cc(NC(=O)CN(C(=O)OCOC(=O)C2CCCC2)C(C)(C)C)c(O)c2c1C[C@H]1C[C@H]3[C@H](N(C)C)C(O)=C(C(N)=O)C(=O)[C@@]3(O)C(O)=C1C2=O [Example 46, ({[(2-{[(5aR,6aS,7S,10aS)-9-(aminocarbonyl)-4,7-bis(dimethylamino)-1,8,10a,11-tetrahydroxy-10,12-dioxo-5,5a,6,6a,7,10,10a,12-octahydrotetracen-2-yl]amino}-2-oxoethyl)(tert-butyl)amino]carbonyl}oxy)methyl cyclopentanecarboxylate]
0.12 µg/mL: MIC (S. pneumoniae* GC 4465; [1]) | MIC (S. pneumoniae* GC 4465; [2]) | MIC (S. pneumoniae* GC 4465; [3]) | MIC (S. pyogenes GC 4563; GC4563, read-out: MINIMAL INHIBITORY CONCENTRATION MIC, pre-incubated in Mouse Serum)
> 64 µg/mL: MIC (P. aeruginosa GC 2214; GC2214, read-out: MINIMAL INHIBITORY CONCENTRATION MIC, pre-incubated in Human Serum) | MIC (P. aeruginosa GC 2214; GC2214, read-out: MINIMAL INHIBITORY CONCENTRATION MIC, pre-incubated in Water) | MIC (E. coli GC 4559; GC4559, read-out: MINIMAL INHIBITORY CONCENTRATION MIC, pre-incubated in Water) | MIC (E. coli GC 3226; GC3226, read-out: MINIMAL INHIBITORY CONCENTRATION MIC, pre-incubated in Water) | MIC (E. coli GC 2203; GC2203, read-out: MINIMAL INHIBITORY CONCENTRATION MIC, pre-incubated in Water)
2 µg/mL: MIC (E. faecalis GC 4555; GC4555, read-out: MINIMAL INHIBITORY CONCENTRATION MIC, pre-incubated in Water) | MIC (E. faecalis GC 2265; GC2265, read-out: MINIMAL INHIBITORY CONCENTRATION MIC, pre-incubated in Water) | MIC (S. epidermidis GC 4935; GC4935, read-out: MINIMAL INHIBITORY CONCENTRATION MIC, pre-incubated in Water) | MIC (E. faecalis GC 2267; GC2267, read-out: MINIMAL INHIBITORY CONCENTRATION MIC, pre-incubated in Water)
4 µg/mL: MIC (E. coli GC 2234; GC2234, read-out: MINIMAL INHIBITORY CONCENTRATION MIC, pre-incubated in Human Serum) | MIC (E. coli GC 2232; GC2232, read-out: MINIMAL INHIBITORY CONCENTRATION MIC, pre-incubated in Human Serum) | MIC (E. coli GC 2272; GC2272, read-out: MINIMAL INHIBITORY CONCENTRATION MIC, pre-incubated in Human Serum) | MIC (E. coli GC 2236; GC2236, read-out: MINIMAL INHIBITORY CONCENTRATION MIC, pre-incubated in Human Serum) | MIC (E. coli GC 2271; GC2271, read-out: MINIMAL INHIBITORY CONCENTRATION MIC, pre-incubated in Human Serum)
0.25 µg/mL: MIC (S. pyogenes GC 4563; GC4563, read-out: MINIMAL INHIBITORY CONCENTRATION MIC, pre-incubated in Human Serum) | MIC (S. pyogenes GC 4563; GC4563, read-out: MINIMAL INHIBITORY CONCENTRATION MIC, pre-incubated in Water) | MIC (S. agalactiae GC 4564; GC4564, read-out: MINIMAL INHIBITORY CONCENTRATION MIC, pre-incubated in Human Serum) | MIC (S. agalactiae GC 4564; GC4564, read-out: MINIMAL INHIBITORY CONCENTRATION MIC, pre-incubated in Mouse Serum) | MIC (S. agalactiae GC 4564; GC4564, read-out: MINIMAL INHIBITORY CONCENTRATION MIC, pre-incubated in Water)
0.83 mg/kg: ED50 (Staph. aureus Smith; iv, read-out: ED50 Staph Smith SIV)
1 µg/mL: MIC (E. coli GC 4559; GC4559, read-out: MINIMAL INHIBITORY CONCENTRATION MIC, pre-incubated in Mouse Serum) | MIC (E. coli GC 3226; GC3226, read-out: MINIMAL INHIBITORY CONCENTRATION MIC, pre-incubated in Mouse Serum) | MIC (S. pneumoniae+ GC 4465; [1]) | MIC (S. pneumoniae+ GC 4465; [2]) | MIC (S. pneumoniae+ GC 4465; [3]) | MIC (S. aureus GC 6335; GC6335, read-out: MINIMAL INHIBITORY CONCENTRATION MIC, pre-incubated in Mouse Serum) | MIC (S. aureus GC 6335; GC6335, read-out: MINIMAL INHIBITORY CONCENTRATION MIC, pre-incubated in Water) | MIC (E. coli GC 2272; GC2272, read-out: MINIMAL INHIBITORY CONCENTRATION MIC, pre-incubated in Mouse Serum) | MIC (E. faecalis GC 2265; GC2265, read-out: MINIMAL INHIBITORY CONCENTRATION MIC, pre-incubated in Human Serum) | MIC (S. epidermidis GC 4935; GC4935, read-out: MINIMAL INHIBITORY CONCENTRATION MIC, pre-incubated in Human Serum) | MIC (S. epidermidis GC 4935; GC4935, read-out: MINIMAL INHIBITORY CONCENTRATION MIC, pre-incubated in Mouse Serum) | MIC (E. faecalis GC 2267; GC2267, read-out: MINIMAL INHIBITORY CONCENTRATION MIC, pre-incubated in Human Serum)
64 µg/mL: MIC (E. coli GC 2234; GC2234, read-out: MINIMAL INHIBITORY CONCENTRATION MIC, pre-incubated in Water) | MIC (E. coli GC 2232; GC2232, read-out: MINIMAL INHIBITORY CONCENTRATION MIC, pre-incubated in Water) | MIC (E. coli GC 2272; GC2272, read-out: MINIMAL INHIBITORY CONCENTRATION MIC, pre-incubated in Water) | MIC (E. coli GC 2236; GC2236, read-out: MINIMAL INHIBITORY CONCENTRATION MIC, pre-incubated in Water) | MIC (E. coli GC 2271; GC2271, read-out: MINIMAL INHIBITORY CONCENTRATION MIC, pre-incubated in Water)
16 µg/mL: MIC (P. aeruginosa GC 2214; GC2214, read-out: MINIMAL INHIBITORY CONCENTRATION MIC, pre-incubated in Mouse Serum) | MIC (E. coli GC 3226; GC3226, read-out: MINIMAL INHIBITORY CONCENTRATION MIC, pre-incubated in Human Serum)
0.5 µg/mL: MIC (S. aureus GC 1131; GC1131, read-out: MINIMAL INHIBITORY CONCENTRATION MIC, pre-incubated in Human Serum) | MIC (S. aureus GC 1131; GC1131, read-out: MINIMAL INHIBITORY CONCENTRATION MIC, pre-incubated in Mouse Serum) | MIC (S. aureus GC 1131; GC1131, read-out: MINIMAL INHIBITORY CONCENTRATION MIC, pre-incubated in Water) | MIC (E. coli GC 2234; GC2234, read-out: MINIMAL INHIBITORY CONCENTRATION MIC, pre-incubated in Mouse Serum) | MIC (E. faecalis GC 4555; GC4555, read-out: MINIMAL INHIBITORY CONCENTRATION MIC, pre-incubated in Human Serum) | MIC (E. faecalis GC 4555; GC4555, read-out: MINIMAL INHIBITORY CONCENTRATION MIC, pre-incubated in Mouse Serum) | MIC (S. aureus GC 6335; GC6335, read-out: MINIMAL INHIBITORY CONCENTRATION MIC, pre-incubated in Human Serum) | MIC (E. coli GC 2232; GC2232, read-out: MINIMAL INHIBITORY CONCENTRATION MIC, pre-incubated in Mouse Serum) | MIC (E. faecalis GC 2265; GC2265, read-out: MINIMAL INHIBITORY CONCENTRATION MIC, pre-incubated in Mouse Serum) | MIC (E. coli GC 2236; GC2236, read-out: MINIMAL INHIBITORY CONCENTRATION MIC, pre-incubated in Mouse Serum) | MIC (E. coli GC 2271; GC2271, read-out: MINIMAL INHIBITORY CONCENTRATION MIC, pre-incubated in Mouse Serum) | MIC (E. coli GC 2203; GC2203, read-out: MINIMAL INHIBITORY CONCENTRATION MIC, pre-incubated in Mouse Serum) | MIC (E. faecalis GC 2267; GC2267, read-out: MINIMAL INHIBITORY CONCENTRATION MIC, pre-incubated in Mouse Serum)
8 µg/mL: MIC (E. coli GC 4559; GC4559, read-out: MINIMAL INHIBITORY CONCENTRATION MIC, pre-incubated in Human Serum) | MIC (E. coli GC 2203; GC2203, read-out: MINIMAL INHIBITORY CONCENTRATION MIC, pre-incubated in Human Serum)
8.4 mg/kg: ED50 (Staph. aureus Smith; Staphylococcus aureus, in Mus musculus, po, read-out: ED50 Staph Smith SOD)
